Assay results published in US20220064127A1, “PLATELET AGGREGATION INHIBITOR, PREPARATION AND USES THEREOF” (SHENYANG HINEWY PHARMACEUTICAL TECHNOLOGY CO., LTD., priority 2020, published 2022).

Columns and labels:
[1] = system: ADP-Induced Platelet Aggregation; test: Inhibition of ADP-induced platelet aggregation in rabbit platelet-rich plasma (microplate method); assay type: cell-based; settings: Oryctolagus cuniculus, Platelet, rabbit PRP, inducer ADP; for IC50: absorbance 655 nm, read-out: IC50 (Mean ± SE), ADP-induced platelet aggregation; for inhibition at 30 µM: read-out: Inhibition rate of target compounds on platelet aggregation at 30 μM
Procedure: Example 62 Investigation on Inhibition of ADP-Induced Platelet Aggregation in Rabbit
A blood sample was collected from ear vein of a healthy male rabbit, added with 3.8% sodium citrate for anticoagulation and then centrifuged at 800 r/min for 10 min to prepare platelet-rich plasma (PRP) and at 3,000 r/min for 10 min to prepare platelet-poor plasma (PPP). The investigation on the plasma should be performed within 0.5-3 h after the preparation.
2. Determination of Platelet Aggregation by Microplate Method
The drugs to be tested were weighed and added with an appropriate amount of DMSO to prepare a series of 10 mM stock solutions, which were respectively diluted to prepare 10× stock solutions with normal saline for further use.
Several wells of a microplate were selected as test wells, which were added with 135 μL of PRP and then respectively added with 15 μL of the 10× stock solutions. A well in which 135 μL of PRP and 15 μL of normal saline were added was used as the vehicle control, and a well in which 135 μL of PPP and 15 μL of normal saline were added was used as the blank control. Duplicate wells were set for each test well. The plate was shaken, incubated at 37° C. for 5 min, and then measured for A0 at 655 nm. Subsequently, the microplate was added with 15 μL of an inducer […] (ADP) working solution (25 μmol/L) in each well, incubated at 37° C. under shaking and measured at 655 nm for A1, where the incubation time was determined according to the time in the pre-experiment when the maximum aggregation appeared. The platelet aggregation rate (AR) and platelet aggregation inhibition rate (AIR) were calculated according to the following formulas:
AR=(1−ARtest sample/ARcontrol)

[2] = system: carotid artery thrombus induced by ferric chloride; test: Effect of intragastric administration on FeCl3-induced carotid arterial thrombosis in male SD rats; assay type: in vivo, male Sprague Dawley (SD) rats; settings: for Wet weight of thrombus: daily for one week, male SD rats, 20% FeCl3
Procedure: Example 63 Effect of Intragastric Administration of Compound LY-26y on Arterial Thrombosis in Male Sprague Dawley (SD) Rats
1. Experimental animals: 50 male SD rats, 260-320 g (n=10).
2. Main reagents: ferric chloride, urethane, 0.5% CMC-Na, 0.9% NaCl.
The 50 male SD rats were randomly and averagely divided into five groups, respectively model group, low-dose LY-26y group (5 mg/kg), medium-dose LY-26y group (10 mg/kg), high-dose LY-26y group (20 mg/kg) and positive control group (10 mg/kg ticagrelor). After experiencing one-week adaptation, the rats in the experimental groups were treated by intragastric administration of LY-26y by at 9 am every day, and the model group was treated with 0.5% CMC-Na solution. After continuously treated for one week, the rats were anesthetized by intraperitoneal injection of 20% urethane ([…]) 8 min after the last administration. Then the anesthetized rats were placed on an insulation plate (to maintain body temperature) in a supine position, and a straight incision was made on the midline of the neck to expose the right common carotid artery. A plastic film (1.5×1.0 cm^2) was placed under the artery to protect the surrounding tissues. The filter paper was cut into a size of 1.0×0.8 cm^2, soaked with a 20% FeCl3 solution and then used to coat the exposed artery for 30 min to induce […] thrombosis. After 2 h of the administration, a 1.5-cm […] carotid artery was collected and weighed, and then the blood vessel was cut to remove the thrombus therein to measure the weight of the blood vessel wall, where the weight difference was the weight of thrombus.

CCOC(=O)c1c(C)nc(-c2cccc(C#N)c2)n1OCc1ccc([N+](=O)[O-])cc1 [LY-26v, ethyl 2-(3-cyanophenyl)-4-methyl-1-[(4-nitrobenzyl)oxy]-1H-imidazole-5-carboxylate]
IC50 [1]: 8.75 ± 0.159 µM

CCOC(=O)c1c(C)nc(-c2cccc(C#N)c2)n1OCc1ccccc1C#N [LY-26w, ethyl 1-[(2-cyanobenzyl)oxy]-2-(3-cyanophenyl)-4-methyl-1H-imidazole-5-carboxylate]
IC50 [1]: 9.38 ± 0.565 µM

CCOC(=O)c1c(C)nc(-c2cccc(C#N)c2)n1OCc1cccc(C#N)c1 [LY-26x, ethyl 1-[(3-cyanobenzyl)oxy]-2-(3-cyanophenyl)-4-methyl-1H-imidazole-5-carboxylate]
inhibition at 30 µM [1]: 3.21%

CCOC(=O)c1c(C)nc(-c2cccc(C#N)c2)n1OCc1ccc(C#N)cc1 [LY-26y, ethyl 1-[(4-cyanobenzyl)oxy]-2-(3-cyanophenyl)-4-methyl-1H-imidazole-5-carboxylate]
IC50 [1]: 4.237 ± 0.0156 µM | Wet weight of thrombus ([2]; 5 mg/kg intragastric): 6.38 ± 0.18 mg | Wet weight of thrombus ([2]; 10 mg/kg intragastric): 4.89 ± 0.33 mg | Wet weight of thrombus ([2]; 20 mg/kg intragastric): 4.39 ± 0.26 mg | Effect on weight of the FeCl3-induced arterial thrombus in rats ([2]; intragastric administration, in words): significantly reduced

COn1c(-c2cccc(C#N)c2)nc(C)c1C(=O)O [LY-27a, 4-methyl-2-(3-cyanophenyl)-1-methoxy-1H-imidazole-5-carboxylic acid]
IC50 [1]: 7.99 ± 0.217 µM

CCOn1c(-c2cccc(C#N)c2)nc(C)c1C(=O)O [LY-27b, 4-methyl-2-(3-cyanophenyl)-1-ethoxy-1H-imidazole-5-carboxylic acid]
IC50 [1]: 9.71 ± 0.557 µM

C=CCOn1c(-c2cccc(C#N)c2)nc(C)c1C(=O)O [LY-27d, 4-methyl-2-(3-cyanophenyl)-1-allyloxy-1H-imidazole-5-carboxylic acid]
IC50 [1]: 6.35 ± 0.469 µM

Cc1nc(-c2cccc(C#N)c2)n(OCc2ccccc2)c1C(=O)O [LY-27k, 4-methyl-2-(3-cyanophenyl)-1-benzyloxy-1H-imidazole-5-carboxylic acid]
IC50 [1]: 6.24 ± 0.324 µM

Cc1ccc(COn2c(-c3cccc(C#N)c3)nc(C)c2C(=O)O)cc1 [LY-27s, 4-methyl-2-(3-cyanophenyl)-1-(4-methylbenzyl)oxy-1H-imidazole-5-carboxylic acid]
IC50 [1]: 6.56 ± 0.357 µM

Cc1nc(-c2cccc(C#N)c2)n(OCc2ccc(C#N)cc2)c1C(=O)O [LY-27y, 4-methyl-2-(3-cyanophenyl)-1-(4-cyanobenzyl)oxy-1H-imidazole-5-carboxylic acid]
IC50 [1]: 3.88 ± 0.269 µM

CCCNC(=O)c1c(C)nc(-c2cccc(C#N)c2)n1OC [LY-28a, 4-methyl-2-(3-cyanophenyl)-1-methoxy-N-propyl-1H-imidazole-5-carboxamide]
IC50 [1]: 9.57 ± 0.226 µM

COn1c(-c2cccc(C#N)c2)nc(C)c1C(=O)NC(C)C [LY-28b, 4-methyl-2-(3-cyanophenyl)-1-methoxy-N-isopropyl-1H-imidazole-5-carboxamide]
IC50 [1]: 11.2 ± 0.966 µM

COn1c(-c2cccc(C#N)c2)nc(C)c1C(=O)Nc1ccccc1 [LY-28c, 2-(3-cyanophenyl)-1-methoxy-4-methyl-N-phenyl-1H-imidazole-5-carboxamide]
IC50 [1]: 15.9 ± 1.2 µM

CCOC(=O)c1[nH]c(-c2cccc(C#N)c2)nc1C [LY-29, ethyl 2-(3-cyanophenyl)-4-methyl-1H-imidazole-5-carboxylate]
inhibition at 30 µM [1]: 32.5%

CCOC(=O)c1c(C)nc(-c2cccc(C#N)c2)n1C [LY-30a, ethyl 2-(3-cyanophenyl)-1,4-dimethyl-1H-imidazole-5-carboxylate]
IC50 [1]: 22.1 ± 0.703 µM

CCCSc1nc(N[C@@H]2C[C@H]2c2ccc(F)c(F)c2)c2nnn([C@@H]3C[C@H](OCCO)[C@@H](O)[C@H]3O)c2n1 [Ticagrelor, reference compound]
IC50 [1]: 7.21 ± 0.251 µM | Wet weight of thrombus ([2]; 10 mg/kg intragastric): 5.01 ± 0.16 mg
